Test results published in patent US8076159B2, “Ligand-regulable transactivation systems, methods of use thereof, methods of detecting estrogen receptor ligands, and methods of differentiating estrogen receptor ligand agonists and antagonists” (The Board of Trustees of the Leland Stanford Junior …, priority 2006, dated 2011).

Molecular target: T1, GAL4-ER (LBD)-VP16 fusion protein (Homo sapiens, UniProt P03372, G400V)
T1 construct: was used to replace the ER of 281-595; expressed in transfected cells; host or cells: 293T cells (A1, A2, A3, A5)
T1 sequence (P03372 281-595 G400V): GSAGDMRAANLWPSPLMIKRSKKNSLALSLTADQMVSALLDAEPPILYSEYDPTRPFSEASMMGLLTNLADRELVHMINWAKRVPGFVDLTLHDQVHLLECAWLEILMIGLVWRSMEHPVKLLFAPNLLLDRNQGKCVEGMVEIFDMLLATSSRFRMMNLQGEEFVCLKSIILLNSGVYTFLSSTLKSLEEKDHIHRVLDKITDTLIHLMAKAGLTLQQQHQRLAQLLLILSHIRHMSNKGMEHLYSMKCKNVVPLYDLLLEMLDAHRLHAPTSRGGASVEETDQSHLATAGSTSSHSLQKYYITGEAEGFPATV
Assay: ER-ligand induced transactivation system (GAL4-ER(LBD)-VP16 activator + GAL4-E4-firefly luciferase reporter) in transiently co-transfected 293T cells
Assay type: cell-based
Text: Cell Transfection and Luciferase Assay. […] Volumes of Lipofectamine were as recommended by the manufacturer.

fold luciferase signal in comparison to carrier control (1 μM ligand) | SMILES | transactivation signal relative to carrier control (in words) (1 μM)
 | N.N.[Cl][Pt][Cl] [non-ligand anticancer drug, cisplatinum] | not significantly different from the cells exposed to carrier control
300±80 fold | C[C@]12CC[C@@H]3c4ccc(O)cc4C[C@@H](CCCCCCCCC[S+]([O-])CCCC(F)(F)C(F)(F)F)[C@H]3[C@@H]1CC[C@@H]2O (some centres unmarked) [ICI] | 
